Experimental data from patent US20250144176A1, “COMPOSITIONS COMPRISING OSTEOPONTIN (OPN)” (SOCIETE DES PRODUITS NESTLE S.A., priority 2022, published 2025).

What was measured:
[1] = test system: pneumonia virus of mice (PVM); test: Neonatal mouse model of PVM-induced bronchiolitis: lung immune cells counted by multi-colour flow cytometry; type: in vivo, mice (C57BL/6 pups)
Excerpt: (§1) C57BL/6 pups were either nursed by OPN-sufficient or OPN-deficient dams.
(§2) At postnatal day 5 (PND5), mice receiving OPN-deficient mother's milk were fed with either a whey protein concentrate (WPC) enriched in OPN (OPNenriched group) or a control WPC (OPN− group) once daily for 15 consecutive days.
(§3) In a similar way, at PND5, mice receiving OPN-sufficient mother's milk were fed with control WPC (OPN+ group) once daily for 15 consecutive days.
(§4) At PND10, all animals were infected intra-nasally (i.n.) with 10 PFU of PVM (J3666) to induce bronchiolitis.
(§5) The used OPN-enriched WPC contained 79 g protein per 100 g, and 729 mg OPN per 100 g. The pups in the OPNenriched group were fed the OPN-enriched WPC as a supplement to deliver 12 μg OPN per average gram of bodyweight per day.
To investigate whether OPN intervention has an impact on immune cell composition, the number of pDCs, CD4+ and CD8+ T cells and neutrophils in lung tissues 5 and/or 9 days post infection were enumerated using multi-colour flow cytometry. Isolated single-cell suspensions from the lungs were washed with PBS/2% FCS, and red blood cells were lysed using Gey's buffer. Cells were washed again, followed by incubation with anti-FcγRIII/II for 15 min at 4° C. Cells were stained using fluorescently labeled antibodies described in the gating strategies herein, with DAPI, 7-AAD, or Zombie NIR used to exclude dead cells.

[2] = test system: pneumonia virus of mice (PVM); test: Neonatal mouse model of PVM-induced bronchiolitis: viral load (PVM-positive airway epithelial cells) and airway epithelial sloughing; type: in vivo, mice (C57BL/6 pups)
Excerpt: as §1, §2, §3, §4, §5
To assess whether OPN intervention has an impact on pathogen expansion, viral load in PVM-infected mice was assessed as the percentage of PVM-positive airway epithelial cells (AEC) stained with an antibody against a specific PVM-glycoprotein. […] AEC detachment is a key feature of viral bronchiolitis and known to be associated with disease severity and viral load. Sloughing of the airway epithelium was quantified by measuring the length of sloughed airway epithelium and expressing this as a percentage of the basement membrane length of a single airway.

[3] = test system: pneumonia virus of mice (PVM); test: Neonatal mouse model of PVM-induced bronchiolitis: airway smooth muscle remodeling by α-smooth muscle actin immunohistochemistry; type: in vivo, mice (C57BL/6 pups); conditions: 9 dpi; OPNenriched group, remodeling dysregulated in OPN− group; FIG. 7
Excerpt: as §1, §2, §3, §4, §5

immune cell profile = conditions: infants fed formula supplemented with bovine OPN; cited from earlier work
lipopolysaccharide (LPS) = conditions: early life dietary supplementation; cited from earlier work

Substance | number of CD4+ cells in lung tissues ([1]; 5 dpi (peak of viral infection), OPNenriched group vs OPN− group, FIG. 4a) | CD4+ T cell accumulation in the lungs ([1]; 9 dpi (peak of immunopathology), OPNenriched group vs OPN− group, FIG. 4b) | neutrophil infiltration to the airways (granulocytic inflammation) ([1]; 9 dpi, FIG. 6) | number of pDCs in the lung ([1]; OPNenriched group vs OPN− group, FIG. 3) | virus infected (PVM-positive) airway epithelial cells (AEC), percentage ([2]; 5 dpi, OPNenriched group vs OPN− group, 12 μg OPN per gram bodyweight per day, once daily for 15 days from PND5, FIG. 2a) | sloughing of the airway epithelium (percentage of basement membrane length) ([2]; 9 dpi, OPNenriched group vs OPN+ group, sloughing significantly elevated in OPN− group, FIG. 2b) | pathological airway smooth muscle remodeling (ASM area) [3] | immune cell profile of infants (immune cell profile) | inflammation resulting from LPS administration (lipopolysaccharide (LPS))
osteopontin [OPN] | significantly higher number | significant decline | reduced granulocytic inflammation | increased number | significant decrease | close to the OPN+ group | attenuated pathological airway smooth muscle remodeling | – | –
bovine OPN: Bovine milk osteopontin, 262 residues, used as dietary supplement in cited studies | – | – | – | – | – | – | – | more similar to breastfed infants | reduced inflammation
